According to paper PMC7948978, “MpeV is a lyase isomerase that ligates a doubly linked phycourobilin on the β-subunit of phycoerythrin I and II in marine Synechococcus” (The Journal of Biological Chemistry, 2020):

Key:
[1] = biological target: T1, CpeB (beta-subunit of phycoerythrin I) (Synechococcus sp. RS9916, UniProt Q05Q60, C61A); assay: LC-MS-MS of trypsin-digested purified protein after co-expression with lyases in E. coli; format: binding; details: covalent, same co-expression
T1 construct: with C-phycoerythrin class I alpha chain (phycoerythrin I alpha subunit)
Text: (§1) LC-MS-MS of trypsin-digested purified protein after co-expression with lyases in E. coli on CpeB (beta-subunit of phycoerythrin I)

[2] = biological target: T2, CpeB (beta-subunit of phycoerythrin I) (Synechococcus sp. RS9916, UniProt Q05Q60); assay: as above; format: binding; details: covalent
T2 construct: with C-phycoerythrin class I alpha chain (phycoerythrin I alpha subunit)
Text: as §1

[3] = biological target: T3, MpeB (beta-subunit of phycoerythrin II) (Synechococcus sp. RS9916, UniProt Q05Q49); assay: as above; format: binding; details: covalent
T3 construct: with C-phycoerythrin class II alpha chain (phycoerythrin II alpha subunit)
Text: LC-MS-MS of trypsin-digested purified protein after co-expression with lyases in E. coli on MpeB (beta-subunit of phycoerythrin II)

[4] = biological target: T4, CpeB (beta-subunit of phycoerythrin I) (Synechococcus sp. RS9916, UniProt Q05Q60, C50A); assay: as above; format: binding
T4 construct: with C-phycoerythrin class I alpha chain (phycoerythrin I alpha subunit)
Text: LC-MS-MS of trypsin-digested purified protein after co-expression with lyases in E. coli on CpeB (beta-subunit of phycoerythrin I) | no peptide ions from the C50A mutant coexpressions modified with PUB at the C61 position

CpeS = biological target: T5, CpeS (Synechococcus sp. RS9916, UniProt Q05Q42); assay: co-expression in E. coli; absorbance, zinc-enhanced fluorescence and LC-MS-MS of purified CpeB; format: cell-based; details: protein co-substrate CpeB or MpeB, site C82; CpeZ enhances
T5 construct: recombinant, pCpeS plasmid; co-expressed in E. coli with bilin synthesis genes and phycoerythrin subunits; CpeS itself not assayed purified
T5 sequence (Q05Q42 1-178): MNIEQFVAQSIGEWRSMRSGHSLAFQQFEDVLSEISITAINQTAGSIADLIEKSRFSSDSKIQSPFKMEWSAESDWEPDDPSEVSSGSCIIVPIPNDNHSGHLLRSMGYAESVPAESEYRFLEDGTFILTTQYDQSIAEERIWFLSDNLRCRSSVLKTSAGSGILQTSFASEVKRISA

[5] = biological target: T6, CpeB (beta-subunit of phycoerythrin I) (Synechococcus sp. RS9916, UniProt Q05Q60, C50A/C61A); assay: zinc-enhanced bilin fluorescence of gel bands over anti-CpeB western blot; format: binding; details: covalent, site C82, attached by CpeS, co-expressed with CpeA, MpeV, CpeZ and bilin synthesis genes
T6 construct: with C-phycoerythrin class I alpha chain (phycoerythrin I alpha subunit)
Text: zinc-enhanced bilin fluorescence of gel bands over anti-CpeB western blot on CpeB (beta-subunit of phycoerythrin I)

[6] = doubly linked at C50 and C61, attached by MpeV, same co-expression

SMILES	Bilin added ^a ([1]; site C82, attached by CpeS) [%]	β-82 ^b / α-140 ([2]; site C82, attached by CpeS, co-expressed with CpeA, MpeV, CpeZ and bilin synthesis genes) [%]	β-165 / β-82 ([3]; site C82, attached by CpeS, co-expressed with MpeA, MpeV, CpeZ and bilin synthesis genes) [%]	Bilin added ^a ([4]; covalent, site C82, attached by CpeS, co-expressed with CpeA, CpeS, MpeV, CpeZ and bilin synthesis genes) [%]	co-expression in E. coli; absorbance, zinc-enhanced fluorescence and LC-MS-MS of (CpeS)	Percentage chromophorylation (% ± SD) ^b [5]	Bilin added ^a ([1]; single linkage by A ring at C50, attached by MpeV) [%]	β-50, 61 ^b / β-159 [2, 6] [%]	β-50, 61 [3, 6] [%]	Bilin added ^a ([4]; covalent attachment at C61 tested, not detected, same co-expression) [%]
C=CC1=C(C)C(CC2=NC(=Cc3[nH]c(C=C4NC(=O)C(C)C4=CC)c(C)c3CCC(=O)O)C(CCC(=O)O)=C2C)NC1=O (stereo not shown) [PEB, phycoerythrobilin]	100	98.2	99.7	76.3	The lyase CpeS is able to attach PEB to CpeB	89.0 ± 12.3 % of WT				
C=CC1=C(C)[C@@H](CC2=N/C(=C\c3[nH]c(C[C@H]4NC(=O)C(C)=C4C=C)c(C)c3CCC(=O)O)C(CCC(=O)O)=C2C)NC1=O [PUB, phycourobilin]							7.6	29.4	84.7	0
